Assay [1] deals with MOLM-13 cells. Description: Apoptosis induction, caspase-3 and PARP cleavage by Western blot. Type of assay: cell-based, human. The following applies: MOLM-13, 10 nM, 24 hours. Here is the method:
(§1) Cells were lysed in lysis buffer (50 mM Tris, pH 8.0, 150 mM NaCl, 1% Triton X-100, 0.5% sodium deoxycholate, 0.1% SDS, 1 mM sodium orthovanadate, 1 mM PMSF, and 1 mM DTT). Protein lysates were resolved by SDS-PAGE and transferred onto a polyvinylidene difluoride (PVDF) membrane (Millipore, Bedford, MA, USA). The membranes were immunoblotted with appropriate antibodies and detected using the SuperSignal reagent (Pierce, Rockford, IL, USA) followed by exposure to X-ray film.
(§2) As the inhibition of FLT3 signaling results in a loss of growth potential and an induction of apoptosis in FLT3-ITD expressing cells, the effects of BPR1J-340 on cell apoptotic response in FLT3-ITD^+ cells was investigated. The MOLM-13 and MV4;11 cells were treated with BPR1J-340 at different concentrations for 24 hours and analyzed for the induction of apoptosis using active caspase-3 and cleaved PARP (poly-ADP-ribose polymerase) analysis.
(§3) Figure 3 BPR1J-340 induces apoptosis in MOLM-13 and MV4;11 cells. […] MOLM-13 (A) and MV4;11 (B) cells were treated with BPR1J-340 at the indicated concentrations for 24 hours, and the cell lysates were then subjected to Western blot analysis using antibodies against caspase-3 and PARP (poly-ADP-ribose polymerase). (full length caspase-3 (FL-caspase-3), cleavage of caspase-3 (CL-caspase-3), full length poly(ADP-ribose) polymerase (FL-PARP), cleavage of PARP (CL-PARP)).
In general terms: Immunoblotting shows a protein as a band on a membrane.

Assay [2] has as its system MV4;11 cells. The description is as above. The following applies: MV4;11, 10 nM, 24 hours. The class given is cell-based, human. Here is the method:
as §1, §2, §3

Assay [3] deals with Aurora B kinase (Homo sapiens, UniProt Q96GD4). Briefly: Aurora B kinase inhibition. The class given is biochemical. The method, then: BPR1J-340, a urea-substituted 3-phenyl-1H-5-pyrazolylamine-based compound, was designed through chemical modification of sulfonamide series of derivatives (BPR1J-097 series) by a structure-activity relationship (SAR) study (Fig. 1), [32]. For kinase inhibition specificity screening, BPR1J-340 was tested against 59 protein kinases covering the major oncogenic kinases of human protein kinome. […] In addition, BPR1J-340 inhibited TRKA, which is associated with the growth and metastasis of breast cancers, with an IC50 value of 8 nM. Given the high similarity of the ATP binding pockets of FLT3 and the Aurora kinases, the inhibitory activity toward Aurora A and Aurora B were measured. […] Taken together, BPRJ-340 is a selective kinase inhibitor with in vitro activity against FLT3, VEGFR2, VEGFR3 and TRKA receptor tyrosine kinases.
Sequence of Aurora B kinase (Q96GD4 whole entry): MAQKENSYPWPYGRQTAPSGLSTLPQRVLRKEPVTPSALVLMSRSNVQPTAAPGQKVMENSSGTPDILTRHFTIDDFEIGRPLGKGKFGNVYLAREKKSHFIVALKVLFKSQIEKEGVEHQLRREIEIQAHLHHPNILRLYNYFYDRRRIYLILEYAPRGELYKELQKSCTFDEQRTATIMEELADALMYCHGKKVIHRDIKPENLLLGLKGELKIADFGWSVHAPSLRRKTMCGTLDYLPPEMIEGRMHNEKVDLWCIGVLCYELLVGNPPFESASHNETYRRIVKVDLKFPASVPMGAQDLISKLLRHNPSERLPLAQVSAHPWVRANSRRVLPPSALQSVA

For assay [4], the system named is A431. Briefly: Cell viability MTS assay. The class given is cell-based. The following applies: Homo sapiens, A-431; A431, non-leukemia; read-out: Proliferation GI50. Here is the method:
(§4) Cell viability was assessed with an MTS assay as carried out as the method described previously. Cells were seeded in 96-well plates at a density of 10,000 cells per well for 16 hours and then treated with vehicle or various concentrations of compound in medium. The change in viable cells was quantitated using the MTS method (Promega, Madison, WI, USA) according to the manufacturer's recommended protocol or by cell counting under a microscope. The GC50 value was defined as the amount of compound that caused a 50% reduction in cell viability in comparison with DMSO-treated (vehicle) control and was calculated using Prism version 4 software (Graph-Pad Software, Inc., San Diego, CA, USA). The data are presented as the mean ± S.D. from three independent experiments. Cell growth were measured by trypan blue dye exclusion method. Cells (1×10^4 mL^−1) were cultured in 12-well plates for 24 hours and then treated with different amounts of test compound and the same volumes of vehicle for 72 hours. The number of viable cells was counted by trypan blue dye staining using a hemocytometer at the indicated time point after drug treatment. The result was expressed as the mean ± S.D. from triplicate determinations.
(Tetrazolium assays rely on reduction of a dye to a coloured formazan, in cell work by metabolically active cells.)

The subject of assay [5] is Hep3B. Briefly: Cell viability MTS assay. The class given is cell-based. Particulars: Homo sapiens, non-leukemia, read-out: Proliferation GI50. The method, then: as §4
Assay [6] concerns RT4. Briefly: Cell viability MTS assay. Particulars: Homo sapiens, RT-4; RT4, non-leukemia; read-out: Proliferation GI50. The class given is cell-based. The method, then: as §4
The subject of assay [7] is HCC827. Briefly: Cell viability MTS assay. The class given is cell-based. The following applies: Homo sapiens; HCC827, non-leukemia; read-out: Proliferation GI50. The method, then: as §4
The subject of assay [8] is MiaPaCa-2. Description: Cell viability MTS assay. The class given is cell-based. The following applies: Homo sapiens, MIA PaCa-2; MiaPaCa-2, non-leukemia; read-out: Proliferation GI50. The method, then: as §4
For assay [9], the system named is Detroit551. Briefly: Cell viability MTS assay. Particulars: Homo sapiens, Detroit 551; Detroit551, non-leukemia; read-out: Proliferation GI50. Type of assay: cell-based. The method, then:
as §4

Assay [10] has as its system H1975. Briefly: Cell viability MTS assay. Type of assay: cell-based. The following applies: Homo sapiens, NCI-H1975; H1975, non-leukemia; read-out: Proliferation GI50. Here is the method:
as §4

Assay [11] has as its system HCT-116. Briefly: Cell viability MTS assay. Type of assay: cell-based. The following applies: Homo sapiens; HCT-116, non-leukemia; read-out: Proliferation GI50. Here is the method: as §4
Assay [12] concerns K562. Description: Cell viability MTS assay. Particulars: Homo sapiens; K562, leukemia; read-out: Proliferation GI50. The class given is cell-based. The method, then: as §4
Assay [13] has as its system H1650. Description: Cell viability MTS assay. Particulars: Homo sapiens, NCI-H1650; H1650, non-leukemia; read-out: Proliferation GI50. Type of assay: cell-based. The method, then:
as §4

For assay [14], the system named is Huh7. Briefly: Cell viability MTS assay. Type of assay: cell-based. Particulars: Homo sapiens, Huh-7; Huh7, non-leukemia; read-out: Proliferation GI50. The method, then: as §4
Assay [15] concerns NCIH460. Description: Cell viability MTS assay. The class given is cell-based. The following applies: Homo sapiens, NCI-H460; NCIH460, non-leukemia; read-out: Proliferation GI50. Here is the method:
as §4

Assay [16] deals with MCF-7. Description: Cell viability MTS assay. The class given is cell-based. The following applies: Homo sapiens, MCF7; MCF-7, non-leukemia; read-out: Proliferation GI50. The method, then:
as §4

Assay [17] relates to U937. Description: Cell viability MTS assay. The class given is cell-based. Particulars: Homo sapiens, U-937; U937, leukemia; read-out: Proliferation GI50. The method, then: as §4
The test system of assay [18] is MKN45. Description: Cell viability MTS assay. The class given is cell-based. The following applies: Homo sapiens, MKN-45; MKN45, non-leukemia; read-out: Proliferation GI50. The method, then: as §4
Assay [19] relates to H2228. Description: Cell viability MTS assay. Type of assay: cell-based. Particulars: Homo sapiens, NCI-H2228; H2228, non-leukemia; read-out: Proliferation GI50. Here is the method:
as §4

The subject of assay [20] is RS4;11. Briefly: Cell viability MTS assay. Type of assay: cell-based. Particulars: Homo sapiens; RS4;11, leukemia, wild-type FLT3, FLT3-independent; read-out: Proliferation GI50 (GC50 in the text). Here is the method: as §4

As usually defined, the IC50 is the concentration at which inhibition is half-maximal.

Consider `CCc1cc(NC(=O)NCc2ccc(-c3cc(NC(=O)c4ccc(CN5CCN(C)CC5)cc4)[nH]n3)cc2)no1` [BPR1J-340, N1-(3-4-[([(5-ethyl-3-isoxazolyl)amino]carbonylamino)methyl]phenyl-1H-5-pyrazolyl)-4-[(4-methylpiperazino)methyl]benzamide], for which the “cleavage of caspase-3 and PARP (apoptosis)” value in assay [1] and in assay [2] was “significant cleavage” throughout. The same molecule gave an IC50 in [3] of 1.34 µM. In addition, the GI50 amounted to 6.57 µM in assay [4]; 8.31 µM in [5]; 7.03 µM in [6]; 2.47 µM in assay [7]; 9.96 µM in assay [8]; 8.34 µM in assay [9]. The GI50 was 2.61 µM in [10]; 9.33 µM in assay [11]; 6.37 µM in [12]; 3.73 µM in assay [13]; 9.74 µM in assay [14]; 13.2 µM in assay [15]. For the same molecule, the GI50 is 11.3 µM in assay [16]; 2.4 µM in assay [17]; 3.58 µM in assay [18]; 2.52 µM in [19]; 0.77 ± 0.36 µM in [20].
